The results in this text go back to patent US9708314B2, “Heterocyclic amide compound” (NISSAN CHEMICAL INDUSTRIES, LTD., priority 2013, dated 2017).

Holding throughout (format): in vivo
For one series, the system named is Leptochloa chinensis. In words: Test Example 3: herbicidal effect by application to foliage (Wagner pot, water depth 0.1-0.5 cm). Conditions: Nineteenth Table; application to foliage; application herbicide amount 320 g/ha. The gist of the method:
(§1)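 Three weeks after spraying, each species was graded 0–5 for herbicidal ratio, 5 being 90% or more. Application: water-diluted emulsifiable concentrate at a fixed g/ha to foliage of 14-day-old greenhouse (25–30 °C) plants in alluvial soil.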

The test system of series [1] is Echinochloa crus-galli var. crus-galli. The description is as above. Conditions: Nineteenth Table; application to foliage; application herbicide amount 320 g/ha. The gist of the method:
as §1

The subject of a further series is Avena fatua. Put plainly: Test Example 4: herbicidal effect by application to foliage (diluvial soil, plastic box). Conditions: application to foliage, application herbicide amount 320 g/ha. A digest of the protocol: (§2)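 Scores run from 0 (herbicidal ratio ≤5%) to 5 (≥90%, almost fully withered) and were assessed three weeks after foliar spraying. Seedlings had been raised for 14 days at 25-30° C in sterilized diluvial soil before treatment, with the emulsion diluted in water to the stated g/ha dose.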

The subject of the next series is Digitaria ciliaris. The series is described as above. Conditions: application to foliage, application herbicide amount 320 g/ha. A digest of the protocol: as §2
For the next series, the system named is Apera spica-venti. The description is as above. Conditions: application to foliage, application herbicide amount 320 g/ha. The gist of the method: as §2
Another series concerns Alopecurus myosuroides. The series is described as above. Conditions: application to foliage, application herbicide amount 320 g/ha. A digest of the protocol: as §2
A further series deals with Lolium multiflorum Lam. The description is as above. The note with it: application to foliage, application herbicide amount 320 g/ha. The gist of the method: as §2
In a further series the test system is Chenopodium album. The description is as above. Conditions: application to foliage, application herbicide amount 320 g/ha. A digest of the protocol:
as §2

The next series relates to Galium spurium. The series is described as above. Conditions: application to foliage, application herbicide amount 320 g/ha. A digest of the protocol:
as §2

A further series relates to Abutilon theophrasti. The description is as above. The note with it: application to foliage, application herbicide amount 320 g/ha. The gist of the method: as §2
In another series the test system is Setaria viridis. Described as above. The note with it: application to foliage, application herbicide amount 320 g/ha. The gist of the method: as §2
The test system of series [2] is Echinochloa crus-galli var. crus-galli. Described as above. The note with it: application to foliage, application herbicide amount 320 g/ha. The gist of the method: as §2
The subject of a further series is Zea mays. In words: Test Example 4: effect on crop by application to foliage (diluvial soil, plastic box). Conditions: application to foliage, application herbicide amount 320 g/ha. The gist of the method:
as §2

The subject of the next series is Brassica campestris L. Described as above. The note with it: application to foliage, application herbicide amount 320 g/ha. A digest of the protocol: as §2
In series [3] the test system is directly sowed Oryza sativa. Described as above. Conditions: application to foliage, application herbicide amount 320 g/ha. The gist of the method: as §2
In series [4] the test system is Beta vulgaris ssp. vulgaris. Described as above. Conditions: application to foliage, application herbicide amount 320 g/ha. The gist of the method:
as §2

The test system of another series is Glycine max. The description is as above. The note with it: application to foliage, application herbicide amount 320 g/ha. The gist of the method: as §2
A further series has as its system Triticum aestivum. Described as above. The note with it: application to foliage, application herbicide amount 320 g/ha. The gist of the method: as §2

Turning to `C=CCN(C)c1nnc2c(C(=O)Nc3nnc(C)o3)ccc(C(F)(F)F)n12` [1-166], in the series with Leptochloa chinensis, the “D (herbicidal effect grade)” value is 3 (Herbicidal ratio of 40% or more and less than 70%). Further, the “H (herbicidal effect grade)” value in series [1] was 4 (Herbicidal ratio of 70% or more and less than 90%). Also, in the series on Avena fatua, the “I: herbicidal effect on Avena fatua” value is 1 (Herbicidal ratio of 5% or more and less than 20%). Moreover, the “F: herbicidal effect on Digitaria ciliaris” value in the series on Digitaria ciliaris was 5 (Herbicidal ratio of 90% or more (almost completely withered)). The “L: herbicidal effect on Apera spica-venti.” value in the series with Apera spica-venti. was 1 (Herbicidal ratio of 5% or more and less than 20%). Further, the “J: herbicidal effect on Alopecurus myosuroides” value with Alopecurus myosuroides is listed as 0 (Herbicidal ratio of 5% or less (almost no effect)). Besides, the “K: herbicidal effect on Lolium multiflorum Lam.” value in the series on Lolium multiflorum Lam. was 1 (Herbicidal ratio of 5% or more and less than 20%). In the series on Chenopodium album, the “O: herbicidal effect on Chenopodium album” value was 5 (Herbicidal ratio of 90% or more (almost completely withered)). For the same compound, the “Q: herbicidal effect on Galium spurium” value in the series with Galium spurium is 1 (Herbicidal ratio of 5% or more and less than 20%). For the same compound, the “M: herbicidal effect on Abutilon theophrasti” value in the series on Abutilon theophrasti was 3 (Herbicidal ratio of 40% or more and less than 70%). For the same compound, the “G: herbicidal effect on Setaria viridis” value with Setaria viridis was 4 (Herbicidal ratio of 70% or more and less than 90%). The “H: herbicidal effect on Echinochloa crus-galli var. crus-galli” value in series [2] is given as 5 (Herbicidal ratio of 90% or more (almost completely withered)). Further, in the series on Zea mays, the “c: effect on crop, Zea mays” value is recorded as 0 (Herbicidal ratio of 5% or less (almost no effect)). The “g: effect on crop, Brassica campestris L.” value in the series with Brassica campestris L. was 4 (Herbicidal ratio of 70% or more and less than 90%). Besides, in [3], the “b: effect on crop, directly sowed Oryza sativa” value is 0 (Herbicidal ratio of 5% or less (almost no effect)). Moreover, the “f: effect on crop, Beta vulgaris ssp. vulgaris” value in [4] is on record as 5 (Herbicidal ratio of 90% or more (almost completely withered)). For the same compound, the “d: effect on crop, Glycine max” value with Glycine max was 4 (Herbicidal ratio of 70% or more and less than 90%). Moreover, the “e: effect on crop, Triticum aestivum” value with Triticum aestivum is reported as 0 (Herbicidal ratio of 5% or less (almost no effect)).
